{
  "source": "ChEMBL document CHEMBL4507319",
  "about": "(2021)",
  "key": {"[1]": {"target": "SRSF protein kinase 1 (Homo sapiens) (UniProt Q96SB4)", "sequence (Q96SB4 whole entry)": "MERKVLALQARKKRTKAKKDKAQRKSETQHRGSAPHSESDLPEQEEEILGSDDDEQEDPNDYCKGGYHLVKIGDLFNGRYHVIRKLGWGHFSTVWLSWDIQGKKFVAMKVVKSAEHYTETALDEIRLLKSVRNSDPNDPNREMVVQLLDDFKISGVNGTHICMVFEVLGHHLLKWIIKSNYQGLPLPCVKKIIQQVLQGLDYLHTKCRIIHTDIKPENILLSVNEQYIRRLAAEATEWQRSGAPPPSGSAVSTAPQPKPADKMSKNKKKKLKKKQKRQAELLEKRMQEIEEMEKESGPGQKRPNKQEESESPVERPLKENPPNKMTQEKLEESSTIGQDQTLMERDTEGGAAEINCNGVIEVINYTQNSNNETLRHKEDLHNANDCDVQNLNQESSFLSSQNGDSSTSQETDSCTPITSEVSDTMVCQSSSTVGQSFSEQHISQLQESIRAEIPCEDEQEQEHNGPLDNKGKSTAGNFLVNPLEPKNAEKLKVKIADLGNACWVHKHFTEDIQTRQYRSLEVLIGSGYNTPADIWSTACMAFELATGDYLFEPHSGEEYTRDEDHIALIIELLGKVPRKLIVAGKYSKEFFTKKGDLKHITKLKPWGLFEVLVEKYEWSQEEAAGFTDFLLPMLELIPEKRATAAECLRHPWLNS", "assay": "SRPK1(h) Eurofins kinase panel", "conditions": "Compound concentration 1.0 uM"}, "[2]": {"target": "NT-3 growth factor receptor (Homo sapiens) (UniProt Q16288)", "assay": "TrkC(h) Eurofins kinase panel", "conditions": "Compound concentration 1.0 uM"}, "[3]": {"target": "Mitogen-activated protein kinase kinase kinase kinase 4 (Homo sapiens) (UniProt O95819)", "sequence (O95819 2-1239 limits assumed)": "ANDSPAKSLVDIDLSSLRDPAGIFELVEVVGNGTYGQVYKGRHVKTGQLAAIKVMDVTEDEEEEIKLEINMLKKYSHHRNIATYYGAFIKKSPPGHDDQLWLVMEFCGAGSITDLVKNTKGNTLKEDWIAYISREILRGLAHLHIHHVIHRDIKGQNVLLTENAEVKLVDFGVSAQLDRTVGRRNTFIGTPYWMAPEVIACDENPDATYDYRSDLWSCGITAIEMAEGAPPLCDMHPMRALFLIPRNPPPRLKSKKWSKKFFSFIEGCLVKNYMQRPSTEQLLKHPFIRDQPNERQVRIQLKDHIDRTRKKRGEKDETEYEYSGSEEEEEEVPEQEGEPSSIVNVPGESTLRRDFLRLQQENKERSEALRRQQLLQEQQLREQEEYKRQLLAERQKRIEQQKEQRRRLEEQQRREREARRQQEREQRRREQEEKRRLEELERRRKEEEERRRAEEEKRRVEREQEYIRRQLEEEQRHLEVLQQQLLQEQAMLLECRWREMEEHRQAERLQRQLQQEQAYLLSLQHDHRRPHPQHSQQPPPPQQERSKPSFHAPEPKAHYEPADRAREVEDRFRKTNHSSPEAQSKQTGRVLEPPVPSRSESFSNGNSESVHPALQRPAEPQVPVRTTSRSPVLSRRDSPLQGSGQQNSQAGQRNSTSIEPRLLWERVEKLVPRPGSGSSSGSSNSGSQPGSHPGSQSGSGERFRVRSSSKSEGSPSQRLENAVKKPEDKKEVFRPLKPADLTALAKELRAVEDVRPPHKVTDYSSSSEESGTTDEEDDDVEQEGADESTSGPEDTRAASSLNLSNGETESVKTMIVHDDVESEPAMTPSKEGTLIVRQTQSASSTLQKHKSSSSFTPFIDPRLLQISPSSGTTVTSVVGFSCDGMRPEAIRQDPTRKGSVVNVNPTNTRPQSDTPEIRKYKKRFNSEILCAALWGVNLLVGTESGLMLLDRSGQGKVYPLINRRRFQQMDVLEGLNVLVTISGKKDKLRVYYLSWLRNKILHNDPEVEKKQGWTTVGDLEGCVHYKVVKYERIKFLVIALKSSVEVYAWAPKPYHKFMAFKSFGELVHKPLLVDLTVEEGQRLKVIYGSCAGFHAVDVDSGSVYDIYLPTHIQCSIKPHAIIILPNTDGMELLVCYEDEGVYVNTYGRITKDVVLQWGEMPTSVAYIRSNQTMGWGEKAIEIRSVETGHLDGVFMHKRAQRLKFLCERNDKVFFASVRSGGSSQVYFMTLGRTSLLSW", "assay": "MAP4K4(h) Eurofins kinase panel", "conditions": "Compound concentration 1.0 uM"}, "[4]": {"target": "Serine/threonine-protein kinase N1 (Homo sapiens) (UniProt Q16512)", "sequence (Q16512 2-942 limits assumed)": "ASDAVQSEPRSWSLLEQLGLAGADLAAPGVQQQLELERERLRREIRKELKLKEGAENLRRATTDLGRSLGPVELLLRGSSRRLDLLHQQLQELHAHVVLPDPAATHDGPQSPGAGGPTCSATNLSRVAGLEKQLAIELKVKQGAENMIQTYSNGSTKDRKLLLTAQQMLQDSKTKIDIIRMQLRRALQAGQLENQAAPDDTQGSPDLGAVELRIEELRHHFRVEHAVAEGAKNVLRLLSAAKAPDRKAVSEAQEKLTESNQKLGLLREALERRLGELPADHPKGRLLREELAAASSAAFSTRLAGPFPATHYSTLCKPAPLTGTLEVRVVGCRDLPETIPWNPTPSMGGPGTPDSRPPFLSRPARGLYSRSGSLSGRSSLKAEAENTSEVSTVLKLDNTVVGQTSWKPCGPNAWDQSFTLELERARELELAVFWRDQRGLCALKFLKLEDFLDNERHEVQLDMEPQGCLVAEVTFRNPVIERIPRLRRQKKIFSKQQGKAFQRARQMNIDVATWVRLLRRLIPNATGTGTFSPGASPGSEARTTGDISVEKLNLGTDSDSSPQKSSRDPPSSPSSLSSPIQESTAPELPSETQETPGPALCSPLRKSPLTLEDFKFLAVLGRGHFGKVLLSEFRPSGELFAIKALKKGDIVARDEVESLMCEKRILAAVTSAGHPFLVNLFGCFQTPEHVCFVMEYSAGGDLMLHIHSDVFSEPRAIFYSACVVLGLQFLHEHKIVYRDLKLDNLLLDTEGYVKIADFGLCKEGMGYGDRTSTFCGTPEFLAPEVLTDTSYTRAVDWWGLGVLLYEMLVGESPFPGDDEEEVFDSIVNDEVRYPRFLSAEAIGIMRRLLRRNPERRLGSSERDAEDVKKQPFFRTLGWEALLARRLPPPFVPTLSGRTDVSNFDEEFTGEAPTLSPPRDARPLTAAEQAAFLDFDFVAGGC", "assay": "PRK1(h) Eurofins kinase panel", "conditions": "Compound concentration 1.0 uM"}, "[5]": {"target": "T1, MAP kinase-activated protein kinase 5 (Homo sapiens) (UniProt Q8IW41)", "T1 sequence (whole entry)": "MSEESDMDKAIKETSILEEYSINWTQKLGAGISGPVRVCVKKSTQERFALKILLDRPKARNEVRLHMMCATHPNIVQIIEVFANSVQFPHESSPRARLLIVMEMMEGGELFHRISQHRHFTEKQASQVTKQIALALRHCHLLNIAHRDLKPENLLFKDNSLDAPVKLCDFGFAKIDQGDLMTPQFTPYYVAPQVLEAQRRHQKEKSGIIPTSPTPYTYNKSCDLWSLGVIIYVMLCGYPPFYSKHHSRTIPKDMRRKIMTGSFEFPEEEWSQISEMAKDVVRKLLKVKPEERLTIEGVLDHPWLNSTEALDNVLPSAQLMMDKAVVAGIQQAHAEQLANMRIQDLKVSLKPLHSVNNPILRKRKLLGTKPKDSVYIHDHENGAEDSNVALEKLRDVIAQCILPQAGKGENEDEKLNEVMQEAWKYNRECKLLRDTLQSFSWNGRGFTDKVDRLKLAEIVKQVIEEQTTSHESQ", "assay": "PRAK(h) Eurofins kinase panel", "conditions": "Compound concentration 1.0 uM"}, "[6]": {"target": "Calcium/calmodulin-dependent protein kinase type 1 (Homo sapiens) (UniProt Q14012)", "sequence (Q14012 whole entry, looked up)": "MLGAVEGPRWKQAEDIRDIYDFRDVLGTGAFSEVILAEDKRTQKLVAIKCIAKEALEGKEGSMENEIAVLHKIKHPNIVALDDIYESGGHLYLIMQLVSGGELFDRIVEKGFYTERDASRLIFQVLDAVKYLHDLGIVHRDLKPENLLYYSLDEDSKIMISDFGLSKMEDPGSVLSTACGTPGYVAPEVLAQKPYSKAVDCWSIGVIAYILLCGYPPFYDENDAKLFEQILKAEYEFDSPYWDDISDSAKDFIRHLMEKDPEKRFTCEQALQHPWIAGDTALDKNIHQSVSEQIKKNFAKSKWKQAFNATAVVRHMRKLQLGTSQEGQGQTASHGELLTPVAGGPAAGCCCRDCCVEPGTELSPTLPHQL", "assay": "CaMKI(h) Eurofins kinase panel", "conditions": "Compound concentration 1.0 uM"}, "[7]": {"target": "Serine/threonine-protein kinase NIM1 (Homo sapiens) (UniProt Q8IY84)", "sequence (Q8IY84 whole entry)": "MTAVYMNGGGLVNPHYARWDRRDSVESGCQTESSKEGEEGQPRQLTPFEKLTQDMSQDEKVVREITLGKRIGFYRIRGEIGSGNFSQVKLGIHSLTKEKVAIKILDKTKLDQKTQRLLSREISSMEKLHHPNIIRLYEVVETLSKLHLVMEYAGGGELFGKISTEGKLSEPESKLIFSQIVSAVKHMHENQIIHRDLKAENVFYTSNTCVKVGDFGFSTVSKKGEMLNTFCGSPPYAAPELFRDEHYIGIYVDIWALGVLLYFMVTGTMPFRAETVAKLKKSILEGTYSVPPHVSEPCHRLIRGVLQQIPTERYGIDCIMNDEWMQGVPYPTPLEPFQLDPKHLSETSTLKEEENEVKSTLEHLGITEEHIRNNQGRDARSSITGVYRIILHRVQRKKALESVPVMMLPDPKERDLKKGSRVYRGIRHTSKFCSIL", "assay": "NIM1(h) Eurofins kinase panel", "conditions": "Compound concentration 1.0 uM"}, "[8]": {"target": "Serine/threonine-protein kinase PAK 5 (Homo sapiens) (UniProt Q9P286)", "sequence (Q9P286 whole entry, looked up)": "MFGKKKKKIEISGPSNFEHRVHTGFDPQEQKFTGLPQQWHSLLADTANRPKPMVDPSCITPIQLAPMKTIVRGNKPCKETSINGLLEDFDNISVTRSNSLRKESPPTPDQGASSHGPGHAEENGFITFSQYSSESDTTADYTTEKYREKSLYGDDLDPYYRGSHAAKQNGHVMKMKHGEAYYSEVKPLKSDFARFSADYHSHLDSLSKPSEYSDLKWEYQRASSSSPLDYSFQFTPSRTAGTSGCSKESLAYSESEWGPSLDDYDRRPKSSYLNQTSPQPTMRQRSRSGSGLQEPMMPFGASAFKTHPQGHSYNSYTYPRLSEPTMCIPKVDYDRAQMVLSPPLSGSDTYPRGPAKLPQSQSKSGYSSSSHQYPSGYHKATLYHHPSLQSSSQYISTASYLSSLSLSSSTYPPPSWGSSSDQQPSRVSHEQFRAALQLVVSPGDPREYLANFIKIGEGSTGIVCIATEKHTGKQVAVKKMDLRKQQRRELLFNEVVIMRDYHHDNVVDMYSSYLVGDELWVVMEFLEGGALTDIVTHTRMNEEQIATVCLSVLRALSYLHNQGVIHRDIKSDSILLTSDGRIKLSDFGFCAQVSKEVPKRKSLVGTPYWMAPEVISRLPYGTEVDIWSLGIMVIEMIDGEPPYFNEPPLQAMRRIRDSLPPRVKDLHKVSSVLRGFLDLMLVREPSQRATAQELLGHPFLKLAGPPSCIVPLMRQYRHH", "assay": "PAK5(h) Eurofins kinase panel", "conditions": "Compound concentration 1.0 uM"}, "[9]": {"target": "T2, Serine/threonine-protein kinase NLK (Homo sapiens) (UniProt Q9UBE8)", "T2 sequence (whole entry)": "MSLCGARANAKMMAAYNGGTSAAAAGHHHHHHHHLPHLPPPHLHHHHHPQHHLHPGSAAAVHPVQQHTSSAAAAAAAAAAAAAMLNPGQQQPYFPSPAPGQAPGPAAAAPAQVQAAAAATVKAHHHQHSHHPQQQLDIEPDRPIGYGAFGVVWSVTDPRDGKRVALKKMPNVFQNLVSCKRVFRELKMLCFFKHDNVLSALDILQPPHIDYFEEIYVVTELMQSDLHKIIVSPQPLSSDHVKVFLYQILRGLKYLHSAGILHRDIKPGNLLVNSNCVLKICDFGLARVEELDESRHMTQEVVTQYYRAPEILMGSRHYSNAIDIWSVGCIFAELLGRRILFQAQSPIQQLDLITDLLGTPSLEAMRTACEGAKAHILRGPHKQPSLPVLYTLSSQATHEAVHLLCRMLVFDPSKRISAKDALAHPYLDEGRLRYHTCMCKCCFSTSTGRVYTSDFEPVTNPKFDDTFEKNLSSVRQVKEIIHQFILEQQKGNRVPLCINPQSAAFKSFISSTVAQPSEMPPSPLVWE", "assay": "NLK(h) Eurofins kinase panel", "conditions": "Compound concentration 1.0 uM"}, "[10]": {"target": "T3, Ephrin type-B receptor 2 (Homo sapiens) (UniProt P29323)", "T3 sequence (whole entry)": "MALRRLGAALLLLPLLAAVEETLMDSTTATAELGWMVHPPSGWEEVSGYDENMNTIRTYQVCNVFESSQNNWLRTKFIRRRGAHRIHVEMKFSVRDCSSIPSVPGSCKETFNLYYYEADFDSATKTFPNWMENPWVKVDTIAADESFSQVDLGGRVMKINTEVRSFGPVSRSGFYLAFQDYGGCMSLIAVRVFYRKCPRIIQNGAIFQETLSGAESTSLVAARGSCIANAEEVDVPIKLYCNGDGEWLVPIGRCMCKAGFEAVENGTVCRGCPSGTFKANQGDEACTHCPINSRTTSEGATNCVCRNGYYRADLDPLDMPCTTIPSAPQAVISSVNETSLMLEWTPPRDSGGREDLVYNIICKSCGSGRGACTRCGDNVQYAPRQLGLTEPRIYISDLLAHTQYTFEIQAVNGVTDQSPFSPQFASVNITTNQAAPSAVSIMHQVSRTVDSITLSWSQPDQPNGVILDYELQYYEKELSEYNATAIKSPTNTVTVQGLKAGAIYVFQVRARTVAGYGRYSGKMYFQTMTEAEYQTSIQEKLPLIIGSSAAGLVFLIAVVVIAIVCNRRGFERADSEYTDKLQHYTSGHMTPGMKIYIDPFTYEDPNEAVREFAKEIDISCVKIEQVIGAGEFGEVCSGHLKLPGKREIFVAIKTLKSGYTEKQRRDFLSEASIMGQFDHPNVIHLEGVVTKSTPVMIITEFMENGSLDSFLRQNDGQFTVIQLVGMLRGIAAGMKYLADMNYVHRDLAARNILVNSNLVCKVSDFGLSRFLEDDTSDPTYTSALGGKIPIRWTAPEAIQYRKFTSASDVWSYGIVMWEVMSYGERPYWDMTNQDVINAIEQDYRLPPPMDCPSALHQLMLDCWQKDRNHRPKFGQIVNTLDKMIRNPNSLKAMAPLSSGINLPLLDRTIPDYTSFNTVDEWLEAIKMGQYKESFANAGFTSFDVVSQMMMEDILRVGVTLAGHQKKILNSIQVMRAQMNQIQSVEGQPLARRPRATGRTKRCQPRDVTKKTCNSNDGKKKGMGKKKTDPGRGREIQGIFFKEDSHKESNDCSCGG", "assay": "EphB2(h) Eurofins kinase panel", "conditions": "Compound concentration 1.0 uM"}, "L-363": {"tested_on": "L-363", "assay": "L-363 cell line Proliferation assay", "format": "functional, Homo sapiens", "conditions": "time 3 day"}},
  "data": [
    {"smiles": "CCc1ccccc1C(=O)Nc1n[nH]c2c(C)c(F)c(C3C(C#N)=C(C)N(C)C(C)=C3C#N)cc12", "note": "[BAY-3827]", "values": [
      {"measurement": "% residual kinase activity", "setting": "[1]", "result": 84, "unit": "%"},
      {"measurement": "% residual kinase activity", "setting": "[2]", "result": 133, "unit": "%"},
      {"measurement": "% residual kinase activity", "setting": "[3]", "result": 91, "unit": "%"},
      {"measurement": "% residual kinase activity", "setting": "[4]", "result": 74, "unit": "%"},
      {"measurement": "% residual kinase activity", "setting": "[5]", "result": 87, "unit": "%"},
      {"measurement": "% residual kinase activity", "setting": "[6]", "result": 93, "unit": "%"},
      {"measurement": "% residual kinase activity", "setting": "[7]", "result": 93, "unit": "%"},
      {"measurement": "% residual kinase activity", "setting": "[8]", "result": 86, "unit": "%"},
      {"measurement": "% residual kinase activity", "setting": "[9]", "result": 91, "unit": "%"},
      {"measurement": "% residual kinase activity", "setting": "[10]", "result": 98, "unit": "%"},
      {"measurement": "Cell Proliferation IC50", "setting": "L-363", "result": 10.8, "unit": "µM"}
    ]}
  ]
}
